# Paper PMC11420776 (RSC Advances, 2024)
# Assays:
# CCRF-CEM (leukemia) = test: NCI 60-cell one-dose antiproliferative screen; assay type: cell-based, human; conditions: one dose 10 μM
# RPMI-8226 (leukemia) = test: NCI 60-cell one-dose antiproliferative screen; assay type: cell-based, human; conditions: one dose 10 μM
# [1] = tested on: A549/ATCC (NSC lung cancer); test: NCI 60-cell one-dose antiproliferative screen; assay type: cell-based, human; conditions: one dose 10 μM
# EKVX (NSC lung cancer) = test: NCI 60-cell one-dose antiproliferative screen; assay type: cell-based, human; conditions: one dose 10 μM
# HOP-62 (NSC lung cancer) = test: NCI 60-cell one-dose antiproliferative screen; assay type: cell-based, human; conditions: one dose 10 μM
# HOP-92 (NSC lung cancer) = test: NCI 60-cell one-dose antiproliferative screen; assay type: cell-based, human; conditions: one dose 10 μM
# [2] = tested on: NCI-H226 (NSC lung cancer); test: NCI 60-cell one-dose antiproliferative screen; assay type: cell-based, human; conditions: one dose 10 μM
# [3] = tested on: NCI-H23 (NSC lung cancer); test: NCI 60-cell one-dose antiproliferative screen; assay type: cell-based, human; conditions: one dose 10 μM
# [4] = tested on: NCI-H322M (NSC lung cancer); test: NCI 60-cell one-dose antiproliferative screen; assay type: cell-based, human; conditions: one dose 10 μM
# [5] = tested on: NCI-H460 (NSC lung cancer); test: NCI 60-cell one-dose antiproliferative screen; assay type: cell-based, human; conditions: one dose 10 μM
# [6] = tested on: NCI-H522 (NSC lung cancer); test: NCI 60-cell one-dose antiproliferative screen; assay type: cell-based, human; conditions: one dose 10 μM
# COLO-205 (colon cancer) = test: NCI 60-cell one-dose antiproliferative screen; assay type: cell-based, human; conditions: one dose 10 μM
# HCC-2998 (colon cancer) = test: NCI 60-cell one-dose antiproliferative screen; assay type: cell-based, human; conditions: one dose 10 μM
# HCT-116 (colon cancer) = test: NCI 60-cell one-dose antiproliferative screen; assay type: cell-based, human; conditions: one dose 10 μM
# HCT-15 (colon cancer) = test: NCI 60-cell one-dose antiproliferative screen; assay type: cell-based, human; conditions: one dose 10 μM
# HT29 (colon cancer) = test: NCI 60-cell one-dose antiproliferative screen; assay type: cell-based, human; conditions: one dose 10 μM
# KM12 (colon cancer) = test: NCI 60-cell one-dose antiproliferative screen; assay type: cell-based, human; conditions: one dose 10 μM
# SW-620 (colon cancer) = test: NCI 60-cell one-dose antiproliferative screen; assay type: cell-based, human; conditions: one dose 10 μM
# SF-268 (CNS cancer) = test: NCI 60-cell one-dose antiproliferative screen; assay type: cell-based, human; conditions: one dose 10 μM
# SF-295 (CNS cancer) = test: NCI 60-cell one-dose antiproliferative screen; assay type: cell-based, human; conditions: one dose 10 μM
# SF-539 (CNS cancer) = test: NCI 60-cell one-dose antiproliferative screen; assay type: cell-based, human; conditions: one dose 10 μM
# SNB-19 (CNS cancer) = test: NCI 60-cell one-dose antiproliferative screen; assay type: cell-based, human; conditions: one dose 10 μM
# SNB-75 (CNS cancer) = test: NCI 60-cell one-dose antiproliferative screen; assay type: cell-based, human; conditions: one dose 10 μM
# U251 (CNS cancer) = test: NCI 60-cell one-dose antiproliferative screen; assay type: cell-based, human; conditions: one dose 10 μM
# LOX IMIV (melanoma) = test: NCI 60-cell one-dose antiproliferative screen; assay type: cell-based, human; conditions: one dose 10 μM
# MALME-3M (melanoma) = test: NCI 60-cell one-dose antiproliferative screen; assay type: cell-based, human; conditions: one dose 10 μM
# M14 (melanoma) = test: NCI 60-cell one-dose antiproliferative screen; assay type: cell-based, human; conditions: one dose 10 μM
# MDA-MB-435 (melanoma) = test: NCI 60-cell one-dose antiproliferative screen; assay type: cell-based, human; conditions: one dose 10 μM
# SK-MEL-2 (melanoma) = test: NCI 60-cell one-dose antiproliferative screen; assay type: cell-based, human; conditions: one dose 10 μM
# SK-MEL-28 (melanoma) = test: NCI 60-cell one-dose antiproliferative screen; assay type: cell-based, human; conditions: one dose 10 μM
# UACC-257 (melanoma) = test: NCI 60-cell one-dose antiproliferative screen; assay type: cell-based, human; conditions: one dose 10 μM
# UACC-62 (melanoma) = test: NCI 60-cell one-dose antiproliferative screen; assay type: cell-based, human; conditions: one dose 10 μM
# IGROV1 (ovarian cancer) = test: NCI 60-cell one-dose antiproliferative screen; assay type: cell-based, human; conditions: one dose 10 μM
# OVCAR-3 (ovarian cancer) = test: NCI 60-cell one-dose antiproliferative screen; assay type: cell-based, human; conditions: one dose 10 μM
# OVCAR-4 (ovarian cancer) = test: NCI 60-cell one-dose antiproliferative screen; assay type: cell-based, human; conditions: one dose 10 μM
# OVCAR-5 (ovarian cancer) = test: NCI 60-cell one-dose antiproliferative screen; assay type: cell-based, human; conditions: one dose 10 μM
# OVCAR-8 (ovarian cancer) = test: NCI 60-cell one-dose antiproliferative screen; assay type: cell-based, human; conditions: one dose 10 μM
# [7] = tested on: NCI/ADR-RES (ovarian cancer); test: NCI 60-cell one-dose antiproliferative screen; assay type: cell-based, human; conditions: one dose 10 μM
# SK-OV-3 (ovarian cancer) = test: NCI 60-cell one-dose antiproliferative screen; assay type: cell-based, human; conditions: one dose 10 μM
# 786-0 (renal cancer) = test: NCI 60-cell one-dose antiproliferative screen; assay type: cell-based, human; conditions: one dose 10 μM
# A498 (renal cancer) = test: NCI 60-cell one-dose antiproliferative screen; assay type: cell-based, human; conditions: one dose 10 μM
# ACHN (renal cancer) = test: NCI 60-cell one-dose antiproliferative screen; assay type: cell-based, human; conditions: one dose 10 μM
# CAKI-1 (renal cancer) = test: NCI 60-cell one-dose antiproliferative screen; assay type: cell-based, human; conditions: one dose 10 μM
# RXF 393 (renal cancer) = test: NCI 60-cell one-dose antiproliferative screen; assay type: cell-based, human; conditions: one dose 10 μM
# SN12C (renal cancer) = test: NCI 60-cell one-dose antiproliferative screen; assay type: cell-based, human; conditions: one dose 10 μM
# TK-10 (renal cancer) = test: NCI 60-cell one-dose antiproliferative screen; assay type: cell-based, human; conditions: one dose 10 μM
# UO-31 (renal cancer) = test: NCI 60-cell one-dose antiproliferative screen; assay type: cell-based, human; conditions: one dose 10 μM
# PC-3 (prostate cancer) = test: NCI 60-cell one-dose antiproliferative screen; assay type: cell-based, human; conditions: one dose 10 μM
# DU-145 (prostate cancer) = test: NCI 60-cell one-dose antiproliferative screen; assay type: cell-based, human; conditions: one dose 10 μM
# MCF7 (breast cancer) = test: NCI 60-cell one-dose antiproliferative screen; assay type: cell-based, human; conditions: one dose 10 μM
# [8] = tested on: MDA-MB-231/ATCC (breast cancer); test: NCI 60-cell one-dose antiproliferative screen; assay type: cell-based, human; conditions: one dose 10 μM
# HS 578T (breast cancer) = test: NCI 60-cell one-dose antiproliferative screen; assay type: cell-based, human; conditions: one dose 10 μM
# T-47D (breast cancer) = test: NCI 60-cell one-dose antiproliferative screen; assay type: cell-based, human; conditions: one dose 10 μM
# [9] = tested on: MDA-MB-468 (breast cancer); test: NCI 60-cell one-dose antiproliferative screen; assay type: cell-based, human; conditions: one dose 10 μM
# [10] = tested on: 60 human tumor cell lines; test: NCI 60-cell one-dose antiproliferative screen, whole panel; assay type: cell-based; conditions: Homo sapiens, 60 cell, read-out: Mean inhibition (mean GI%)
smiles,measurement,setting,value
"O=[N+]([O-])c1ccc(C=NNc2ccc3nnc(-c4ccccc4)n3n2)cc1 [Compound 4b, 6-(2-(4-Nitrobenzylidene)hydrazinyl)-3-phenyl-[1,2,4]triazolo[4,3-b]pyridazine]",GI%,CCRF-CEM (leukemia),— (— GI% is below 15%)
same,GI%,RPMI-8226 (leukemia),— (— GI% is below 15%)
same,GI%,[1],— (— GI% is below 15%)
same,GI%,EKVX (NSC lung cancer),— (— GI% is below 15%)
same,GI%,HOP-62 (NSC lung cancer),— (— GI% is below 15%)
same,GI%,HOP-92 (NSC lung cancer),— (— GI% is below 15%)
same,GI%,[2],— (— GI% is below 15%)
same,GI%,[3],— (— GI% is below 15%)
same,GI%,[4],— (— GI% is below 15%)
same,GI%,[5],— (— GI% is below 15%)
same,GI%,[6],— (— GI% is below 15%)
same,GI%,COLO-205 (colon cancer),— (— GI% is below 15%)
same,GI%,HCC-2998 (colon cancer),— (— GI% is below 15%)
same,GI%,HCT-116 (colon cancer),— (— GI% is below 15%)
same,GI%,HCT-15 (colon cancer),— (— GI% is below 15%)
same,GI%,HT29 (colon cancer),— (— GI% is below 15%)
same,GI%,KM12 (colon cancer),— (— GI% is below 15%)
same,GI%,SW-620 (colon cancer),— (— GI% is below 15%)
same,GI%,SF-268 (CNS cancer),— (— GI% is below 15%)
same,GI%,SF-295 (CNS cancer),— (— GI% is below 15%)
same,GI%,SF-539 (CNS cancer),— (— GI% is below 15%)
same,GI%,SNB-19 (CNS cancer),— (— GI% is below 15%)
same,GI%,SNB-75 (CNS cancer),— (— GI% is below 15%)
same,GI%,U251 (CNS cancer),— (— GI% is below 15%)
same,GI%,LOX IMIV (melanoma),— (— GI% is below 15%)
same,GI%,MALME-3M (melanoma),— (— GI% is below 15%)
same,GI%,M14 (melanoma),— (— GI% is below 15%)
same,GI%,MDA-MB-435 (melanoma),— (— GI% is below 15%)
same,GI%,SK-MEL-2 (melanoma),— (— GI% is below 15%)
same,GI%,SK-MEL-28 (melanoma),— (— GI% is below 15%)
same,GI%,UACC-257 (melanoma),— (— GI% is below 15%)
same,GI%,UACC-62 (melanoma),— (— GI% is below 15%)
same,GI%,IGROV1 (ovarian cancer),— (— GI% is below 15%)
same,GI%,OVCAR-3 (ovarian cancer),— (— GI% is below 15%)
same,GI%,OVCAR-4 (ovarian cancer),— (— GI% is below 15%)
same,GI%,OVCAR-5 (ovarian cancer),— (— GI% is below 15%)
same,GI%,OVCAR-8 (ovarian cancer),— (— GI% is below 15%)
same,GI%,[7],— (— GI% is below 15%)
same,GI%,SK-OV-3 (ovarian cancer),— (— GI% is below 15%)
same,GI%,786-0 (renal cancer),— (— GI% is below 15%)
same,GI%,A498 (renal cancer),— (— GI% is below 15%)
same,GI%,ACHN (renal cancer),— (— GI% is below 15%)
same,GI%,CAKI-1 (renal cancer),— (— GI% is below 15%)
same,GI%,RXF 393 (renal cancer),— (— GI% is below 15%)
same,GI%,SN12C (renal cancer),— (— GI% is below 15%)
same,GI%,TK-10 (renal cancer),— (— GI% is below 15%)
same,GI%,UO-31 (renal cancer),— (— GI% is below 15%)
same,GI%,PC-3 (prostate cancer),— (— GI% is below 15%)
same,GI%,DU-145 (prostate cancer),— (— GI% is below 15%)
same,GI%,MCF7 (breast cancer),— (— GI% is below 15%)
same,GI%,[8],— (— GI% is below 15%)
same,GI%,HS 578T (breast cancer),— (— GI% is below 15%)
same,GI%,T-47D (breast cancer),— (— GI% is below 15%)
same,GI%,[9],— (— GI% is below 15%)
same,inhibition at 10 µM,[10],< 0%
"COc1ccc(-c2nnc3ccc(NN=Cc4ccc(C)cc4)nn23)cc1 [Compound 4f, 3-(4-Methoxyphenyl)-6-(2-(4-methylbenzylidene)hydrazinyl)-[1,2,4]triazolo[4,3-b]pyridazine]",GI%,CCRF-CEM (leukemia),— (— GI% is below 15%)
same,GI%,RPMI-8226 (leukemia),— (— GI% is below 15%)
same,GI%,[1],66.62%
same,GI%,EKVX (NSC lung cancer),31.76%
same,GI%,HOP-62 (NSC lung cancer),29.57%
same,GI%,HOP-92 (NSC lung cancer),81.11%
same,GI%,[2],45.38%
same,GI%,[3],49.25%
same,GI%,[4],— (— GI% is below 15%)
same,GI%,[5],48.83%
same,GI%,[6],— (— GI% is below 15%)
same,GI%,COLO-205 (colon cancer),20.07%
same,GI%,HCC-2998 (colon cancer),20.85%
same,GI%,HCT-116 (colon cancer),21.17%
same,GI%,HCT-15 (colon cancer),50.02%
same,GI%,HT29 (colon cancer),17.40%
same,GI%,KM12 (colon cancer),31.89%
same,GI%,SW-620 (colon cancer),— (— GI% is below 15%)
same,GI%,SF-268 (CNS cancer),40.91%
same,GI%,SF-295 (CNS cancer),43.09%
same,GI%,SF-539 (CNS cancer),38.74%
same,GI%,SNB-19 (CNS cancer),— (— GI% is below 15%)
same,GI%,U251 (CNS cancer),55.13%
same,GI%,LOX IMIV (melanoma),76.27%
same,GI%,MALME-3M (melanoma),— (— GI% is below 15%)
same,GI%,M14 (melanoma),16.52%
same,GI%,MDA-MB-435 (melanoma),35.32%
same,GI%,SK-MEL-2 (melanoma),— (— GI% is below 15%)
same,GI%,SK-MEL-28 (melanoma),— (— GI% is below 15%)
same,GI%,UACC-257 (melanoma),— (— GI% is below 15%)
same,GI%,UACC-62 (melanoma),— (— GI% is below 15%)
same,GI%,IGROV1 (ovarian cancer),— (— GI% is below 15%)
same,GI%,OVCAR-3 (ovarian cancer),84.42%
same,GI%,OVCAR-4 (ovarian cancer),63.09%
same,GI%,OVCAR-5 (ovarian cancer),— (— GI% is below 15%)
same,GI%,OVCAR-8 (ovarian cancer),58.61%
same,GI%,[7],74.21%
same,GI%,SK-OV-3 (ovarian cancer),20.16%
same,GI%,786-0 (renal cancer),43.09%
same,GI%,A498 (renal cancer),— (— GI% is below 15%)
same,GI%,ACHN (renal cancer),41.02%
same,GI%,CAKI-1 (renal cancer),45.37%
same,GI%,RXF 393 (renal cancer),37.84%
same,GI%,SN12C (renal cancer),23.07%
same,GI%,TK-10 (renal cancer),17.28%
same,GI%,UO-31 (renal cancer),66.50%
same,GI%,PC-3 (prostate cancer),27.83%
same,GI%,DU-145 (prostate cancer),60.93%
same,GI%,MCF7 (breast cancer),42.84%
same,GI%,[8],34.65%
same,GI%,HS 578T (breast cancer),70.93%
same,GI%,T-47D (breast cancer),24.01%
same,GI%,[9],— (— GI% is below 15%)
same,inhibition at 10 µM,[10],34.8%
